Tested on: japanese bulrush
Assay: Test Example 3: paddy pot test, application under submerged conditions
Type: in vivo, Scirpus juncoides
Conditions: active ingredient 250 g/ha; submerged application at 0.5 leaf stage; visually observed 14 days after application; 0 = non-treated, 100 = complete kill
From the text: (§1) Paddy field soil was put into a 1/1,000,000 ha pot, and seed of barnyardgrass and japanese bulrush were sown and slightly covered with soil. Then, the pot was left to stand still in a greenhouse in a state where the depth of flooding water was from 0.5 to 1 cm, and one day or two days later, tubers of japanese ribbon wapato were planted. Thereafter, the depth of flooding water was maintained at a level of from 3 to 4 cm, and when barnyardgrass and japanese bulrush reached a 0.5 leaf stage and japanese ribbon wapato reached a primary leaf stage, an aqueous diluted solution of a wettable powder or emulsifiable concentrate having the compound of the present invention formulated in accordance with a usual formulation method, was uniformly applied under submerged conditions by a pipette so that the dose of the active ingredient would be at a predetermined level. On the 14 days after the application of the herbicide, the growth of barnyard grass, japanese burlrush and japanese ribbon wapato was visually observed and on the 21st day after the application of the herbicide, the growth of rice was visually observed, and the herbicidal effects were evaluated by the growth-controlling degrees (%) ranging from 0 (equivalent to the non-treated plot) to 100 (complete kill), whereby the results shown in Table 5 were obtained.

Compound	Growth controlling degree (%) Japanese bulrush
CC(C)C(c1cnccc1C(F)(F)F)N(C)C(=O)COc1cc([N+](=O)[O-])c(Cl)cc1Cl (stereo not drawn) [I-253]	20%
CC(C)C(c1cnccc1C(F)(F)F)N(C)C(=O)C=COc1ccccc1 (stereo not drawn) [I-166, N-methyl-N-[2-methyl-1-(4-trifluoromethylpyridin-3-yl)propyl]3-phenoxypropenamide]	95%
CC(C)C(c1cnccc1C(F)(F)F)N(C)C(=O)C=Cc1cccs1 (stereo not drawn) [I-173]	95%
CC(=CC(=O)N(C)C(c1cnccc1C(F)(F)F)C(C)C)c1ccccc1 (stereo not drawn) [I-174]	95%
CC(C)C(c1cnccc1C(F)(F)F)N(C)C(=O)COc1cccc(Cl)c1 (stereo not drawn) [I-247]	95%
CC(C)C(c1cnccc1C(F)(F)F)N(C)C(=O)COc1ccccc1Cl (stereo not drawn) [I-235]	90%
CC(C)C(c1cnccc1Cl)N(C)C(=O)Cc1c(F)ccc(F)c1F (stereo not drawn) [I-89]	95%
CC(C)C(c1cnccc1C(F)(F)F)N(C)C(=O)COc1ccc(Cl)cc1Cl (stereo not drawn) [I-236]	80%
CC(C)C(c1cnccc1C(F)(F)F)N(C)C(=O)COc1ccc([N+](=O)[O-])cc1 (stereo not drawn) [I-237]	95%
CC(C)C(c1cnccc1C(F)(F)F)N(C)C(=O)C=C1CCCC1 (stereo not drawn) [I-176]	98%
CC(C)C(c1cnccc1C(F)(F)F)N(C)C(=O)C1CCCC1 (stereo not drawn) [I-212]	98%
Cc1cccc(CC(=O)N(C)C(c2cnccc2Cl)C(C)C)c1 (stereo not drawn) [I-88]	70%

Tested on: japanese ribbon wapato
Assay: as above
Type: in vivo, Sagittaria pygniaea
Conditions: active ingredient 250 g/ha; submerged application at primary leaf stage; visually observed 14 days after application; 0 = non-treated, 100 = complete kill
From the text: as §1

Compound	Growth controlling degree (%) Japanese ribbon wapato
CC(C)C(c1cnccc1C(F)(F)F)N(C)C(=O)COc1cc([N+](=O)[O-])c(Cl)cc1Cl (stereo not drawn) [I-253]	0%
CC(C)C(c1cnccc1C(F)(F)F)N(C)C(=O)C=COc1ccccc1 (stereo not drawn) [I-166, N-methyl-N-[2-methyl-1-(4-trifluoromethylpyridin-3-yl)propyl]3-phenoxypropenamide]	0%
CC(C)C(c1cnccc1C(F)(F)F)N(C)C(=O)C=Cc1cccs1 (stereo not drawn) [I-173]	30%
CC(=CC(=O)N(C)C(c1cnccc1C(F)(F)F)C(C)C)c1ccccc1 (stereo not drawn) [I-174]	0%
CC(C)C(c1cnccc1C(F)(F)F)N(C)C(=O)COc1cccc(Cl)c1 (stereo not drawn) [I-247]	0%
CC(C)C(c1cnccc1C(F)(F)F)N(C)C(=O)COc1ccccc1Cl (stereo not drawn) [I-235]	60%
CC(C)C(c1cnccc1Cl)N(C)C(=O)Cc1c(F)ccc(F)c1F (stereo not drawn) [I-89]	40%
CC(C)C(c1cnccc1C(F)(F)F)N(C)C(=O)COc1ccc(Cl)cc1Cl (stereo not drawn) [I-236]	70%
CC(C)C(c1cnccc1C(F)(F)F)N(C)C(=O)COc1ccc([N+](=O)[O-])cc1 (stereo not drawn) [I-237]	40%
CC(C)C(c1cnccc1C(F)(F)F)N(C)C(=O)C=C1CCCC1 (stereo not drawn) [I-176]	0%
CC(C)C(c1cnccc1C(F)(F)F)N(C)C(=O)C1CCCC1 (stereo not drawn) [I-212]	80%
Cc1cccc(CC(=O)N(C)C(c2cnccc2Cl)C(C)C)c1 (stereo not drawn) [I-88]	50%

Tested on: barnyardgrass
Assay: as above
Type: in vivo, Echinochloa crus-galli L.
Conditions: active ingredient 250 g/ha; submerged application at 0.5 leaf stage; visually observed 14 days after application; 0 = non-treated, 100 = complete kill
From the text: as §1

Compound	Growth controlling degree (%) Barnyardgrass
CC(C)C(c1cnccc1C(F)(F)F)N(C)C(=O)COc1cc([N+](=O)[O-])c(Cl)cc1Cl (stereo not drawn) [I-253]	90%
CC(C)C(c1cnccc1C(F)(F)F)N(C)C(=O)C=COc1ccccc1 (stereo not drawn) [I-166, N-methyl-N-[2-methyl-1-(4-trifluoromethylpyridin-3-yl)propyl]3-phenoxypropenamide]	100%
CC(C)C(c1cnccc1C(F)(F)F)N(C)C(=O)C=Cc1cccs1 (stereo not drawn) [I-173]	90%
CC(=CC(=O)N(C)C(c1cnccc1C(F)(F)F)C(C)C)c1ccccc1 (stereo not drawn) [I-174]	10%
CC(C)C(c1cnccc1C(F)(F)F)N(C)C(=O)COc1cccc(Cl)c1 (stereo not drawn) [I-247]	100%
CC(C)C(c1cnccc1C(F)(F)F)N(C)C(=O)COc1ccccc1Cl (stereo not drawn) [I-235]	100%
CC(C)C(c1cnccc1Cl)N(C)C(=O)Cc1c(F)ccc(F)c1F (stereo not drawn) [I-89]	100%
CC(C)C(c1cnccc1C(F)(F)F)N(C)C(=O)COc1ccc(Cl)cc1Cl (stereo not drawn) [I-236]	95%
CC(C)C(c1cnccc1C(F)(F)F)N(C)C(=O)COc1ccc([N+](=O)[O-])cc1 (stereo not drawn) [I-237]	95%
CC(C)C(c1cnccc1C(F)(F)F)N(C)C(=O)C=C1CCCC1 (stereo not drawn) [I-176]	98%
CC(C)C(c1cnccc1C(F)(F)F)N(C)C(=O)C1CCCC1 (stereo not drawn) [I-212]	100%
Cc1cccc(CC(=O)N(C)C(c2cnccc2Cl)C(C)C)c1 (stereo not drawn) [I-88]	100%

Tested on: rice (var. Nihonbare)
Assay: Test Example 3: paddy pot test, transplanted rice
Type: in vivo, Oryza sativa L.
Conditions: active ingredient 250 g/ha, applied 4th day after transplantation, visually observed 21st day after application, 0 = non-treated, 100 = complete kill
From the text: as §1, with “On the other hand, paddy field soil was put into a 1/1,000,000 ha pot and puddled and leveled, and the depth of flooding water was from 3 to 4 cm. Next day, rice (var. Nihonbare) of 2 leaf stage was transplanted in a depth of 3 cm. On the 4th day after the transplantation, the compound of the present invention was applied in the same manner as described above. On the 14 days” for “On the 14 days”

Compound	Growth controlling degree (%) Rice
CC(C)C(c1cnccc1C(F)(F)F)N(C)C(=O)COc1cc([N+](=O)[O-])c(Cl)cc1Cl (stereo not drawn) [I-253]	10%
CC(C)C(c1cnccc1C(F)(F)F)N(C)C(=O)C=COc1ccccc1 (stereo not drawn) [I-166, N-methyl-N-[2-methyl-1-(4-trifluoromethylpyridin-3-yl)propyl]3-phenoxypropenamide]	0%
CC(C)C(c1cnccc1C(F)(F)F)N(C)C(=O)C=Cc1cccs1 (stereo not drawn) [I-173]	0%
CC(=CC(=O)N(C)C(c1cnccc1C(F)(F)F)C(C)C)c1ccccc1 (stereo not drawn) [I-174]	0%
CC(C)C(c1cnccc1C(F)(F)F)N(C)C(=O)COc1cccc(Cl)c1 (stereo not drawn) [I-247]	0%
CC(C)C(c1cnccc1C(F)(F)F)N(C)C(=O)COc1ccccc1Cl (stereo not drawn) [I-235]	0%
CC(C)C(c1cnccc1Cl)N(C)C(=O)Cc1c(F)ccc(F)c1F (stereo not drawn) [I-89]	0%
CC(C)C(c1cnccc1C(F)(F)F)N(C)C(=O)COc1ccc(Cl)cc1Cl (stereo not drawn) [I-236]	0%
CC(C)C(c1cnccc1C(F)(F)F)N(C)C(=O)COc1ccc([N+](=O)[O-])cc1 (stereo not drawn) [I-237]	0%
CC(C)C(c1cnccc1C(F)(F)F)N(C)C(=O)C=C1CCCC1 (stereo not drawn) [I-176]	0%
CC(C)C(c1cnccc1C(F)(F)F)N(C)C(=O)C1CCCC1 (stereo not drawn) [I-212]	30%
Cc1cccc(CC(=O)N(C)C(c2cnccc2Cl)C(C)C)c1 (stereo not drawn) [I-88]	0%
